According to patent US8791106B2, “Fused ring pyridine compound” (Astellas Pharma Inc., priority 2010, dated 2014):

What was measured:
human CB2 = target: T1, human CB2 (Homo sapiens, UniProt P34972); test: Test on inhibition of human CB2-mediated cyclic AMP (cAMP) production; format: cell-based; settings: 30 nM test substance; forskolin 0.5 μM; human CB2-expressing CHO cells; 30 minutes at room temperature; read-out: Inh(%): inhibition rate of cAMP increase
T1 construct: expressed in transfected cells; host or cells: CHO cells
Method: This test was performed using CHO cells caused to express human CB2 (“Molecular Pharmacology”, 1995, Vol. 48, pp 443-450).
A human CB2-expressing CHO cell (2.5×10^3/mL) suspension and an assay medium supplemented with a test substance and forskolin (final concentration of 0.5 μM) were mixed together in equal amounts, followed by incubation for 30 minutes at room temperature, and then a 0.6% Triton X-100 solution was added thereto, thereby obtaining a cell lysate. A cAMP concentration in the cell lysate was measured using a cAMP kit (manufactured by Cisbio International). The assay medium was obtained by supplementing α-MEM manufactured by Invitrogen with 0.02% CHAPS, 1 mM isobutylmethylxanthine, and 0.5 mg/mL bovine serum albumin. The cAMP concentration in a forskolin-free cell suspension was regarded as 0% of increase in cAMP, and the cAMP concentration in a forskolin-added cell suspension was regarded as a 100% increase in cAMP, thereby allowing calculation of the inhibition rate of intracellular cAMP increase in 30 nM test substance.
In the table, Ex represents the example number of a test compound described later, and Inh represents inhibition rate of cAMP increase.

[1] = test system: adjuvant-induced arthritis rat; test: Effect of inhibition of hind paw weight distribution in adjuvant-induced arthritis rat; format: in vivo; settings: oral, female Lewis rats, day after adjuvant, Vehicle group 0%, Normal group 100%, read-out: Inhibition rate (%) of hind paw load difference
Method: For this test, female Lewis rats (7- to 8-weeks-old) were used. 50 μL of killed Mycobacterium tuberculosis H37 Ra (manufactured by DIFCO MICROBIOLOGY) suspended in liquid paraffin at a concentration of 10 mg/mL was subcutaneously administered to the right hind footpad. On the next day, the test substance was administered orally, and after some time, the load on the left and right hind paws was measured using an Incapacitance Tester (manufactured by Linton Instruments), thereby calculating a difference in the load between left and right. The load difference of a Vehicle-administered group was regarded as an inhibition rate of 0%, and the load difference of a Normal group was regarded as an inhibition rate of 100%, thereby allowing calculation of the inhibition rate of the test substance.
In the table, Ex represents an example number of a test compound described later, and values in the parenthesis indicates a dose.

T1 sequence (P34972 whole entry): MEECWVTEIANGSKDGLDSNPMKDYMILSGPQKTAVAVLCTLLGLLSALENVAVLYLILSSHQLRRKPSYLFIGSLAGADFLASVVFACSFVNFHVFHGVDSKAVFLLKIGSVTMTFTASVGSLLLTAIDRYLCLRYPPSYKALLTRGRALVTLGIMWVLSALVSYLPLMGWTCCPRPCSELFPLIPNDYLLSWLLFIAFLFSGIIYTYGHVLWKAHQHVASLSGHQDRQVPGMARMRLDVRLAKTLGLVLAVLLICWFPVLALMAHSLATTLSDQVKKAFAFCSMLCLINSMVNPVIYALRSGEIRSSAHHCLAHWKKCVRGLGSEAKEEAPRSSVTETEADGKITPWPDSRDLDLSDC

| Compound | inhibition at 0.03 µM (human CB2) [%] | inhibition in vivo at 0.3 mg/kg [1] [%] | inhibition in vivo at 0.1 mg/kg [1] [%] |
| --- | --- | --- | --- |
| O=C(c1ncc(Nc2cccc(Cl)c2)c2c1C1CCC2CC1)N1CCS(=O)(=O)CC1 [Example 98] | 96 |  |  |
| Cc1ccc(F)c(Nc2cnc(C(=O)N3CCS(=O)(=O)CC3)c3c2C2CCC3CC2)c1 [Example 165] | 111 |  |  |
| CC1(C)CCCC(Nc2ncc(C(=O)N3CCS(=O)(=O)CC3)c3c2CCCC3)C1 (stereo not shown) [Example 38] | 77 |  |  |
| O=C(c1cnc(Nc2cccc(OC(F)(F)F)c2)c2c1CCCC2)N1CCOCC1 [Example 16] | 87 |  | 29 |
| O=C(c1ncc(Nc2cccc(Cl)c2)c2c1CCCC2)N1CCS(=O)(=O)CC1 [Example 10] | 73 |  | 30 |
| O=C(c1cnc(Nc2cccc(Cl)c2)c2c1CCCC2)N1CCS(=O)(=O)CC1 [Example 30] | 82 |  | 17 |
| Cc1cccc(Nc2cnc(C(=O)N3CCS(=O)(=O)CC3)c3c2C2CCC3CC2)c1F [Example 164] | 119 |  |  |
| O=C(c1ncc(Nc2ccc(F)c(C(F)(F)F)c2)c2c1C1CCC2CC1)N1CCS(=O)(=O)CC1 [Example 129] | 95 |  |  |
| O=C(c1ncc(Nc2cccc(OC(F)(F)F)c2)c2c1C1CCC2CC1)N1CCS(=O)(=O)CC1 [Example 125] | 100 |  |  |
| O=C(c1cnc(Oc2cccc(C(F)(F)F)c2)c2c1CCCC2)N1CCS(=O)(=O)CC1 [Example 52] | 96 |  |  |
| O=C(c1cnc(N[C@@H]2C[C@H]3CC[C@@H]2C3)c2c1CCCC2)N1CCOCC1 [Example 11] | 77 |  |  |
| O=C(c1ncc(Nc2cccc(C(F)(F)F)c2)c2c1CCCC2)N1CCS(=O)(=O)CC1 [Example 36] | 82 |  | 49 |

Second part, led by results:

| inhibition at 0.03 µM (human CB2) [%] | Compound | inhibition in vivo at 0.3 mg/kg [1] [%] | inhibition in vivo at 0.1 mg/kg [1] [%] |
| --- | --- | --- | --- |
| 115 | Cc1ccc(Nc2cnc(C(=O)N3CCS(=O)(=O)CC3)c3c2C2CCC3CC2)cc1Cl [Example 167] |  |  |
| 90 | O=C(c1cnc(Nc2ccc(F)c(C(F)(F)F)c2)c2c1C1CCC2C1)N1CCS(=O)(=O)CC1 (stereo not shown) [Example 133-2] | 39 |  |
| 100 | O=C(c1cnc(Nc2cccc(Cl)c2)c2c1C1CCC2C1)N1CCS(=O)(=O)CC1 (stereo not shown) [Example 117-2] |  |  |
| 97 | O=C(c1ncc(Nc2cccc(Cl)c2)c2c1C1CCC2C1)N1CCS(=O)(=O)CC1 (stereo not shown) [Example 94-1] |  |  |
| 105 | O=C(c1cnc(Nc2cccc(OC(F)(F)F)c2)c2c1C1CCC2C1)N1CCS(=O)(=O)CC1 (stereo not shown) [Example 120-2] | 34 |  |
| 99 | O=C(c1cnc(Nc2cccc(Cl)c2)c2c1C1CCC2CC1)N1CCS(=O)(=O)CC1 [Example 101] |  |  |
| 93 | O=C(c1ncc(Nc2ccc(F)c(Cl)c2)c2c1C1CCC2C1)N1CCS(=O)(=O)CC1 (stereo not shown) [Example 59] |  |  |
| 100 | O=C(c1cnc(Nc2cc(F)cc(Cl)c2)c2c1C1CCC2CC1)N1CCS(=O)(=O)CC1 [Example 179] |  |  |
| 103 | O=C(c1cnc(Nc2cccc(C(F)(F)F)c2)c2c1C1CCC2CC1)N1CCS(=O)(=O)CC1 [Example 112] |  |  |
| 97 | O=C(c1cnc(Nc2ccc(F)c(F)c2)c2c1C1CCC2CC1)N1CCS(=O)(=O)CC1 [Example 138] | 54 |  |
| 91 | O=C(c1cnc(Nc2ccc(F)c(Cl)c2)c2c1C1CCC2C1)N1CCS(=O)(=O)CC1 (stereo not shown) [Example 119-2] | 49 |  |
